Results on 56 molecules are retold here after US12617773B2, “Azetidin-3-ylmethanol derivatives as CCR6 receptor modulators” (Idorsia Pharmaceuticals Ltd, priority 2020, dated 2026).

This experiment deals with T1, human CCR6 (Homo sapiens, UniProt P51684).
T1 construct: expressed in transfected cells; host or cells: HEK-293
T1 sequence (P51684 1-374): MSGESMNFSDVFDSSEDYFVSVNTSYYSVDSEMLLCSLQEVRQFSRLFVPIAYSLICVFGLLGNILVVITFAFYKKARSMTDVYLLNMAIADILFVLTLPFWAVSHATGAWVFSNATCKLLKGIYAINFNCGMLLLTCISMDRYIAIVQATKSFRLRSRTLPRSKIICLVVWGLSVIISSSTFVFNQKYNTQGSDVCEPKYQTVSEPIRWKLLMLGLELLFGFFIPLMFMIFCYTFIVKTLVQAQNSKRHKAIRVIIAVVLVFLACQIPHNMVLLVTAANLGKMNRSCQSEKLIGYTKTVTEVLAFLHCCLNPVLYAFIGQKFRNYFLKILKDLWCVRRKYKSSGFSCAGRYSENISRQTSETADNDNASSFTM
Description: FLIPR assay (inhibition of CCL20-induced calcium signal). It counts as cell-based. The note with it: HEK-293 cells expressing human CCR6; mean values where determined several times; read-out: FLIPR IC50. Put shortly: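 IC50 values come from baseline-corrected peak calcium fluorescence after agonist. The agonist was CCL20 at 10 nM final, added to engineered human CCR6 HEK-293 cells following a 30-min, room-temperature, dark preincubation with serially diluted compound. Readings were taken in a fluorometric imaging plate reader.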
Regarding `CC(=O)N1CCC(c2nc(-c3cncc([C@@](O)(c4ccc(C(C)C)cc4)C4(C)CN(CCO)C4)c3)no2)CC1` [Example 580, 1-[4-(3-{5-[(R)-Hydroxy-[1-(2-hydroxy-ethyl)-3-methyl-azetidin-3-yl]-(4-isopropyl-phenyl)-methyl]-pyridin-3-yl}[1,2,4]oxadiazol-5-yl)-piperidin-1-yl]-ethanone], the IC50 (usually the concentration needed to halve the response being measured) is 294 nM.
The same measure for `CC(=O)N1CCC(c2nc(-c3cncc([C@@](O)(c4ccc(C(C)C)cc4)C4(C)CN(CC5CC5)C4)c3)no2)CC1` [Example 581]: 113 nM; for `COCCN1CC(C)([C@](O)(c2ccc(C(C)C)cc2)c2cncc(-c3noc(C4CCN(C(C)=O)CC4)n3)c2)C1` [Example 582]: 485 nM.
The same measure for `CC(=O)N1CCC(c2nc(-c3cncc([C@@](O)(c4ccc(C(C)C)cc4)C4(C)CN(CCC(F)(F)F)C4)c3)no2)CC1` [Example 583]: 239 nM; for `CCCN1CC(C)([C@](O)(c2ccc(C(C)C)cc2)c2cncc(-c3noc(C4CCN(C(C)=O)CC4)n3)c2)C1` [Example 584]: 130 nM.
In the case of `CCN1CC(C)([C@](O)(c2ccc(C(C)C)cc2)c2cncc(-c3noc(C4CCN(C(C)=O)CC4)n3)c2)C1` [Example 585] it was 116 nM.
For `CC(=O)N1CCC(C#Cc2cncc([C@@](O)(c3ccc(C(C)C)cc3)C3(C)CN(C)C3)c2)CC1` [Example 586], the IC50 amounted to 67 nM.
On to `CC(C)c1ccc([C@](O)(c2cncc(C#CC(C)(O)C(F)(F)F)c2)C2(C)CN(C)C2)cc1` (some centres unmarked) [Example 587], for which the IC50 came out at 14.8 nM.
The same measure for `CC(C)c1ccc([C@](O)(c2cncc(C#CC(C)(C)NC(=O)C3CC3)c2)C2(C)CN(C)C2)cc1` [Example 588]: 119 nM; for `CC(C)C(=O)NC(C)(C)C#Cc1cncc([C@@](O)(c2ccc(C(C)C)cc2)C2(C)CN(C)C2)c1` [Example 589]: 154 nM.
The same measure for `COCC(=O)NC(C)(C)C#Cc1cncc([C@@](O)(c2ccc(C(C)C)cc2)C2(C)CN(C)C2)c1` [Example 590]: 235 nM.
The same measure for `CC(C)c1ccc([C@](O)(c2cncc(C#CC(C)(C)N3CCOC3=O)c2)C2(C)CN(C)C2)cc1` [Example 591]: 71.6 nM; for `CC(C)c1ccc([C@](O)(c2cncc(C#CC(C)(C)N3CCCC3=O)c2)C2(C)CN(C)C2)cc1` [Example 592]: 44.8 nM; for `CC(C)c1ccc([C@](O)(c2cncc(C#CC(C)(C)N3CCN(C)C3=O)c2)C2(C)CN(C)C2)cc1` [Example 593]: 51.6 nM.
As for `CC(C)c1ccc([C@](O)(c2cncc(C#CC(C)(C)N3CCNC3=O)c2)C2(C)CN(C)C2)cc1` [Example 594], the half-inhibitory concentration (IC50) was found to be 45.4 nM.
The same measure for `CC(C)c1ccc([C@](O)(c2cncc(C#CC3(N4CCOC4=O)CC3)c2)C2(C)CN(C)C2)cc1` [Example 595]: 93.2 nM; for `CC(=O)N1CCC[C@]1(C)C#Cc1cncc([C@@](O)(c2ccc(C(C)C)cc2)C2(C)CN(C)C2)c1` [Example 596]: 117 nM; for `CC(=O)N1CCC(O)(C#Cc2cncc([C@@](O)(c3ccc(C(C)C)cc3)C3(C)CN(C)C3)c2)CC1` [Example 597]: 395 nM.
Take `CC(=O)N1CCC(C(C)(O)C#Cc2cncc([C@@](O)(c3ccc(C(C)C)cc3)C3(C)CN(C)C3)c2)CC1` (some centres unmarked) [Example 598]: the IC50 was determined as 94.8 nM.
The same measure for `CC(=O)N1CCC(C(O)C#Cc2cncc([C@@](O)(c3ccc(C(C)C)cc3)C3(C)CN(C)C3)c2)CC1` (some centres unmarked) [Example 599]: 149 nM; for `CC(=O)N1CCC(CC#Cc2cncc([C@@](O)(c3ccc(C(C)C)cc3)C3(C)CN(C)C3)c2)CC1` [Example 600]: 45.7 nM; for `CC(=O)N1CCC(C)(C(O)C#Cc2cncc([C@@](O)(c3ccc(C(C)C)cc3)C3(C)CN(C)C3)c2)CC1` (some centres unmarked) [Example 601]: 75.5 nM.
The same measure for `CC(=O)N1CCC(C)(C#Cc2cncc([C@@](O)(c3ccc(C(C)C)cc3)C3(C)CN(C)C3)c2)CC1` [Example 602]: 39.5 nM.
The same measure for `CC(C)c1ccc([C@](O)(c2cncc(C#CC3CCN(S(C)(=O)=O)CC3)c2)C2(C)CN(C)C2)cc1` [Example 603]: 31.2 nM; for `CNS(=O)(=O)N1CCC(C)(C#Cc2cncc([C@@](O)(c3ccc(C(C)C)cc3)C3(C)CN(C)C3)c2)CC1` [Example 604]: 18.9 nM; for `CC(C)c1ccc([C@](O)(c2cncc(C#CC(C)(C)S(C)(=O)=O)c2)C2(C)CN(C)C2)cc1` [Example 605]: 78.6 nM.
Regarding `CC(C)c1ccc([C@](O)(c2cncc(C#CC3(S(=O)(=O)N(C)C)CC3)c2)C2(C)CN(C)C2)cc1` [Example 606], the IC50 was found to be 22.6 nM.
Regarding `CC(C)c1ccc([C@](O)(c2cncc(C#CC3(S(N)(=O)=O)CC3)c2)C2(C)CN(C)C2)cc1` [Example 607], the IC50 was 104 nM.
In the case of `CC(C)c1ccc([C@](O)(c2cncc(C#CC(C)(C)S(=O)(=O)C3CC3)c2)C2(C)CN(C)C2)cc1` [Example 608], the IC50 worked out at 43.5 nM.
Regarding `CC(C)c1ccc([C@](O)(c2cncc(C#C[C@]3(O)CCN(C)C3=O)c2)C2(C)CN(C)C2)cc1` [Example 609], the IC50 worked out at 656 nM.
The same measure for `CC(C)c1ccc([C@](O)(c2cncc(C#C[C@@]3(O)CCN(C)C3=O)c2)C2(C)CN(C)C2)cc1` [Example 610]: 426 nM; for `CC(C)c1ccc([C@](O)(c2cncc(C#CC3(O)CCOc4cccnc43)c2)C2(C)CN(C)C2)cc1` (some centres unmarked) [Example 611]: 74.9 nM.
The same measure for `CC(C)c1ccc([C@](O)(c2cncc(C#CC3(O)C(=O)N(C)c4ccccc43)c2)C2(C)CN(C)C2)cc1` (some centres unmarked) [Example 612]: 58.5 nM; for `CC(C)c1ccc([C@](O)(c2cncc(C#CC(C)(O)c3n[nH]c4ccccc34)c2)C2(C)CN(C)C2)cc1` (some centres unmarked) [Example 613]: 11.1 nM; for `CC(C)c1ccc([C@](O)(c2cncc(C#CC(C)(O)c3nn(C)c4ccccc34)c2)C2(C)CN(C)C2)cc1` (some centres unmarked) [Example 614]: 12.6 nM.
The same measure for `Cc1nccc(C(C)(O)C#Cc2cncc([C@@](O)(c3ccc(C(C)C)cc3)C3(C)CN(C)C3)c2)n1` (some centres unmarked) [Example 616]: 102 nM; for `Cc1cnc(C(C)(O)C#Cc2cncc([C@@](O)(c3ccc(C(C)C)cc3)C3(C)CN(C)C3)c2)cn1` (some centres unmarked) [Example 617]: 53.5 nM; for `Cc1ncc(C(C)(O)C#Cc2cncc([C@@](O)(c3ccc(C(C)C)cc3)C3(C)CN(C)C3)c2)s1` (some centres unmarked) [Example 618]: 23.3 nM.
For the molecule `CC(C)c1ccc([C@](O)(c2cncc(C#CC(C)(O)c3cc(C4CC4)ncn3)c2)C2(C)CN(C)C2)cc1` (some centres unmarked) [Example 619], the IC50 amounted to 68.8 nM.
In the case of `CC(=O)NC(C)(C)C#Cc1cncc([C@@](O)(c2ccc(C(C)C)cc2)C2(C)CN(C)C2)c1` [Example 621], the 50% inhibitory concentration (IC50) was found to be 235 nM.
As to `CC(C)c1ccc([C@](O)(c2cncc(C#CC(C)(O)c3cc(C(F)(F)F)ncn3)c2)C2(C)CN(C)C2)cc1` (some centres unmarked) [Example 632], the IC50 is 14.1 nM.
`CC(C)c1ccc([C@](O)(c2cncc(C#CC(C)(O)c3cc(C(F)F)ncn3)c2)C2(C)CN(C)C2)cc1` (some centres unmarked) [Example 633]: the IC50 worked out at 42.5 nM.
The same measure for `CC(C)c1ccc([C@](O)(c2cncc(C#CC3(c4ccccn4)CC3)c2)C2(C)CN(C)C2)cc1` [Example 634]: 40.6 nM; for `Cc1cc(C2(C#Cc3cncc([C@@](O)(c4ccc(C(C)C)cc4)C4(C)CN(C)C4)c3)CC2)ncn1` [Example 635]: 23.2 nM.
In the case of `CC(=O)N1CCC(CCc2cncc([C@@](O)(c3ccc(C(C)C)cc3)C3(C)CN(C)C3)c2)CC1` [Example 636] it was 107 nM.
The same measure for `CC(C)c1ccc([C@](O)(c2cncc(CCC(C)(O)C(F)(F)F)c2)C2(C)CN(C)C2)cc1` (some centres unmarked) [Example 637]: 46.3 nM; for `CC(C)c1ccc([C@](O)(c2cncc(CCC(C)(C)N3CCOC3=O)c2)C2(C)CN(C)C2)cc1` [Example 638]: 509 nM; for `CC(C)c1ccc([C@](O)(c2cncc(CCC(C)(C)N3CCCC3=O)c2)C2(C)CN(C)C2)cc1` [Example 639]: 96.6 nM.
For `CC(C)c1ccc([C@](O)(c2cncc(CCC(C)(C)N3CCN(C)C3=O)c2)C2(C)CN(C)C2)cc1` [Example 640], the IC50 is 169 nM.
The same measure for `CC(C)c1ccc([C@](O)(c2cncc(CCC(C)(C)N3CCNC3=O)c2)C2(C)CN(C)C2)cc1` [Example 641]: 67 nM; for `CC(=O)N1CCC[C@]1(C)CCc1cncc([C@@](O)(c2ccc(C(C)C)cc2)C2(C)CN(C)C2)c1` [Example 642]: 277 nM; for `CC(C)c1ccc([C@](O)(c2cncc(CCC(C)(O)c3n[nH]c4ccccc34)c2)C2(C)CN(C)C2)cc1` (some centres unmarked) [Example 643]: 16.9 nM.
The same measure for `CC(C)c1ccc([C@](O)(c2cncc(CCC(C)(O)c3ccn(C4CC4)n3)c2)C2(C)CN(C)C2)cc1` (some centres unmarked) [Example 644]: 147 nM; for `Cc1nccc(C(C)(O)CCc2cncc([C@@](O)(c3ccc(C(C)C)cc3)C3(C)CN(C)C3)c2)n1` (some centres unmarked) [Example 645]: 110 nM; for `Cc1cnc(C(C)(O)CCc2cncc([C@@](O)(c3ccc(C(C)C)cc3)C3(C)CN(C)C3)c2)cn1` (some centres unmarked) [Example 646]: 129 nM.
Turning to `Cc1ncc(C(C)(O)CCc2cncc([C@@](O)(c3ccc(C(C)C)cc3)C3(C)CN(C)C3)c2)s1` (some centres unmarked) [Example 647], the 50% inhibitory concentration (IC50) was 76.3 nM.
